# Test results reported in patent publication US20050222110A1, “Use of loteprednol etabonate for the treatment of dry eye” (priority 2004, published 2005).
# Columns and labels:
# [1] = tested on: keratoconjunctivitis sicca (KCS) in patients with delayed tear clearance; experiment: Clinical trial in KCS patients: corneal fluorescein staining score; type: in vivo, human; conditions: subset with more severe clinical inflammatory signs at entry
# Protocol: (§1) A randomized, double-masked, placebo-controlled, multicenter, pilot study was conducted in compliance with ICH Good Clinical Practice and the Declaration of Helsinki. Approval was obtained from an Institutional Review Board for each study site before initiating the study. Written informed consent was obtained from all patients before any study specific investigations were performed.
# In addition, they were required to meet the following criteria in at least one eye: • 1. delayed tear clearance defined by a standardized visual scale score ≧3^15 • 2. at least one symptom >30 mm on the visual analog scale (VAS) • 3. composite corneal staining score >3
# Patients were randomly assigned to receive either Lotemax® Bausch and Lomb Inc. Rochester N.Y., or placebo four times a day. […]
# Patients attended for 5 visits. […] The fluorescence was graded between 0 and 6 using a standard color comparison scale. […] The corneal staining was evaluated 5 minutes after the instillation of the 2% fluorescein, viewing the cornea through a slit lamp with blue light and a No. 11 Wratten filter (See Table 2 below).
# As is traditional for studies of this kind, two primary variables were defined representing subjective evaluation by the patient and objective evaluation based on the clinical examination findings. […] Each area was scored according to the corneal staining grading scale (Table 2 above). […]
# [2] = Clinical trial in KCS patients: adverse events and toxicity; type: in vivo, human; conditions: following one month of therapy
# Protocol: as §1
# (§2) Patients were randomly assigned to receive either Lotemax® Bausch and Lomb Inc. Rochester N.Y., or placebo four times a day. Lotemax® (loteprednol etabonate ophthalmic suspension, 0.5%) was supplied in 7.5 mL (5.0 mL fill) white, low density polyethylene dropper bottles with white caps for masking purposes. Placebo (the vehicle of Lotemax®) was supplied in identical bottles. Preservative Free Moisture Eyes™ Lubricant Eye Drops (Bausch & Lomb) were supplied in unit dose containers.
# (§3) Safety was assessed by fundoscopy, lens examination and biomicroscopy, by tests of visual acuity and intraocular pressure, and by monitoring adverse events and changes in symptomatology. Adverse events were evaluated by the investigator as to severity (mild, moderate, severe) and relationship of the event to the study drug (probable, possible, unlikely, or unknown).
# [3] = Clinical trial in KCS patients: intraocular pressure; type: in vivo, human; conditions: one month of therapy; mean IOP and individual patients
# Protocol: as §1, §2, §3
# [4] = 0.2%; up to 3 years; 265 patients; allergic conjunctivitis; cited from earlier work
smiles,measurement,setting,value
"CCOC(=O)O[C@]1(C(=O)OCCl)CC[C@H]2[C@@H]3CCC4=CC(=O)C=C[C@]4(C)[C@H]3[C@@H](O)C[C@@]21C [loteprednol, (11β,17α),-17-[(Ethoxycarbonyl)oxy]-11-hydroxy-3-oxoandrosta-1,4-diene-17-carboxylic acid chloromethyl ester]","Central corneal fluorescein staining, improvement",[1]; four weeks,~20%
same,"Central corneal fluorescein staining, improvement",[1]; two weeks,approximately 30%
same,Toxicity,[2],complete lack of toxicity
same,Elevation of IOP,[3],neither elevation of the mean IOP nor any individual with a clinically important elevation of the IOP
same,Cataract formation,[4],no cataract formation was observed
same,Mean intraocular pressure compared to pretreatment values,[4],not different from baseline
